Reference: paper PMC7044277 (Nature Communications, 2020)
Where “and” joins values, the source holds several entries; their conditions need not be identical. Identical values can stand only once.

Tests used:
[1] = system: serotonin receptor (subtype not given; reference agonist serotonin); experiment: β-arrestin2 recruitment (Tango), agonist activity, source data Fig_S10l; type: cell-based, human; conditions: drug alone
[2] = system: serotonin receptor of Fig_S10g (subtype not named); experiment: β-arrestin2 recruitment (Tango), agonist activity, panel Fig_S10g (serotonin as reference; receptor not given); type: cell-based, human
5HT4 = target: T1, 5HT4 (Homo sapiens, UniProt Q13639); experiment: β-arrestin2 recruitment (Tango); type: cell-based; conditions: Fig_S10n; for β-arrestin2 recruitment response in presence of serotonin (replicate values): +10μM serotonin; for β-arrestin2 recruitment response (dose-response source data, replicate values): drug alone
T1 construct: expressed in transfected cells; host or cells: HTLA cells expressing TEV-fused β-arrestin2
T1 sequence (Q13639 whole entry, the tested form may be a part): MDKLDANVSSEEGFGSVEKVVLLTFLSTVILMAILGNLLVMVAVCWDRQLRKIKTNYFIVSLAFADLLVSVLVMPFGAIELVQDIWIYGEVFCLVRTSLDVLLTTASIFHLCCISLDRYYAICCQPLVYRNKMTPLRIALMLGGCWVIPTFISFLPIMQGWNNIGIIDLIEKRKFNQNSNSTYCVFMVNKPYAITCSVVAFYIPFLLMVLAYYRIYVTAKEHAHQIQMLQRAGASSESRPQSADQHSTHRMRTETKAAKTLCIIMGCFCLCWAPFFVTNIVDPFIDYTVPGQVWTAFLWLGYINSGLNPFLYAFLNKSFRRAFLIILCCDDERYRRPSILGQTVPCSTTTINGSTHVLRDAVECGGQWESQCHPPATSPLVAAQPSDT

DRD2 F1103.28L = target: T2, DRD2 F1103.28L (Homo sapiens, UniProt P14416, F110L); experiment: Gαi/o-mediated cAMP inhibition (GloSensor), mutant; type: cell-based
T2 construct: expressed in transfected cells; host or cells: HEK293T (ATCC CRL-11268)
T2 sequence (P14416 whole entry F110L): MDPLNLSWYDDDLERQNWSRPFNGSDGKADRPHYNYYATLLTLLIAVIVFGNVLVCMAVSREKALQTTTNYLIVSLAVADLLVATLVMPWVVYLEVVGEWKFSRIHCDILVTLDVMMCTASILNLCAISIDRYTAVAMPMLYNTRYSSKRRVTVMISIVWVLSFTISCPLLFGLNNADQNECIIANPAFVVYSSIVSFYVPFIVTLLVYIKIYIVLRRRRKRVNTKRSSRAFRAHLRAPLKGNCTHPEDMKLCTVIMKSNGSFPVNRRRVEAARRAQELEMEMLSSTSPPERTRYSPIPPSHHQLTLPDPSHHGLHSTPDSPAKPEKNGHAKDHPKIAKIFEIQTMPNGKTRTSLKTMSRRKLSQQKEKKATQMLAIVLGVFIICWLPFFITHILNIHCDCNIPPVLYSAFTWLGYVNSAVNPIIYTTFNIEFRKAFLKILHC

DRD3 F1063.28A = DRD3 F1063.28A (Homo sapiens, UniProt P35462, F106A); experiment: biochemical; type: binding
DRD3 F1063.28A, sequence (P35462 whole entry F106A): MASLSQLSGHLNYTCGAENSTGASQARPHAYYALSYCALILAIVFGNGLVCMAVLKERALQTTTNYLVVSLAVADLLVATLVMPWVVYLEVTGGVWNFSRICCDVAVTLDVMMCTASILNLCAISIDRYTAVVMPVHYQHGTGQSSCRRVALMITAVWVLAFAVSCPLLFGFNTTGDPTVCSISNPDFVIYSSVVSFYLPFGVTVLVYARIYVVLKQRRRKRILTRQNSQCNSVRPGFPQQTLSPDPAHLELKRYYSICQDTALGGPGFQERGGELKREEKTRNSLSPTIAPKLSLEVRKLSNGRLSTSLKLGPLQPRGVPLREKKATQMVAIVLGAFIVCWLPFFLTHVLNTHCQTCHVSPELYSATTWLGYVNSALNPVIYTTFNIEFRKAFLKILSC

CCOc1cccc2cc([C@@H](C)NCC3(O)CCCCC3)oc12 [O4RE6]
response, Fig_S10l, replicate values ([1]; Log[Drug] -7): -18.1455 and -1.053 and 5.44 and -6.097 and -0.7764 and -1.627 and 21.5386 and -8.446 and -23.0116
response, Fig_S10l, replicate values ([1]; Log[Drug] -7.52): 10.4314 and -7.0535 and -12.5511 and -5.4086 and -2.507 and -5.8801 and -14.9973 and 5.012 and -22.748
response, Fig_S10l, replicate values ([1]; Log[Drug] -8): -3.494 and -0.9897 and -1.101 and -6.133 and 9.37 and -6.103 and -6.764 and -19.0522 and -18.9699
response, Fig_S10l, replicate values ([1]; Log[Drug] -8.52): -14.6079 and -9.137 and 0.1161 and -2.858 and 0.4788 and -6.718 and 5.642 and 9.781 and -19.7014
response, Fig_S10l, replicate values ([1]; Log[Drug] -9): -7.429 and -0.8033 and 2.514 and -1.371 and -2.511 and 6.172 and -12.5406 and 13.3677 and 9.079
response, Fig_S10l, replicate values ([1]; Log[Drug] -9.52): -7.024 and -4.6241 and 4.382 and 5.183 and -6.777 and -3.91 and -13.0464 and 1.094 and -1.351
response, Fig_S10l, replicate values ([1]; Log[Drug] -10): -1.517 and -3.218 and -6.7099 and 1.544 and 10.647 and -1.892 and 3.1372 and 12.1979 and 15.1176
response, Fig_S10l, replicate values ([1]; Log[Drug] -10.52): 7.131 and -7.271 and -11.3727 and 2.195 and -7.95 and -8.5307 and 3.862 and 0.6607 and 18.5102
response, Fig_S10l, replicate values ([1]; Log[Drug] -11): 7.402 and 9.101 and -6.117 and -2.283 and 7.1162 and 16.1339 and -5.988 and 21.1185 and -1.691
response, Fig_S10l, replicate values ([1]; Log[Drug] -11.52): 20.0426 and 4.341 and -34.8779 and 9.958 and -2.256 and -5.643 and 0.02142 and 3.842 and -14.699
response, Fig_S10l, replicate values ([1]; Log[Drug] -12): 1.452 and 8.392 and -9.8386 and -3.912 and 6.115 and -2.202 and -0.8107 and 10.4431 and -9.6291
response, single replicate of concentration-response curve ([2]; Log[Drug] -6.52, drug alone): -0.2238
response, single replicate of concentration-response curve ([2]; Log[Drug] -7, drug alone): -0.9957 and 0.7395 and -0.3731 and -4.075 and -6.459 and 6.257 and -6.235 and -15.3353 and -2.563
response, single replicate of concentration-response curve ([2]; Log[Drug] -7.52, drug alone): 3.537 and -8.588 and -8.236 and 1.017 and -6.537 and 8.346 and -24.6047 and -9.735 and -3.961
response, single replicate of concentration-response curve ([2]; Log[Drug] -8, drug alone): -8.838 and 5.045 and -3.835 and -6.3435 and -10.7922 and -4.261 and 1.209 and 10.8594 and -1.1998
response, single replicate of concentration-response curve ([2]; Log[Drug] -8.52, drug alone): 7.317 and 3.662 and -0.2578 and 4.902 and -3.436 and -0.8135 and 0.3262 and -17.2923 and -3.276
response, single replicate of concentration-response curve ([2]; Log[Drug] -9, drug alone): -7.333 and -6.074 and -4.492 and 7.736 and 5.892 and -7.036 and 12.8804 and 16.0838 and -14.0161
response, single replicate of concentration-response curve ([2]; Log[Drug] -9.52, drug alone): 5.814 and -6.894 and -1.133 and -0.4282 and -3.469 and 10.7257 and -14.7529 and -4.735 and 6.229
response, single replicate of concentration-response curve ([2]; Log[Drug] -10, drug alone): 4.7653 and -6.922 and -6.74 and 0.01564 and -8.293 and -7.394 and -5.827 and 22.4235 and -13.92
response, single replicate of concentration-response curve ([2]; Log[Drug] -10.52, drug alone): -4.711 and -9.672 and -0.4245 and 5.467 and 12.0515 and -5.19 and -22.007 and -11.0399 and -21.0839
response, single replicate of concentration-response curve ([2]; Log[Drug] -11, drug alone): -6.102 and 1.947 and -4.193 and 7.519 and 7.073 and 6.156 and 9.863 and -6.485 and 14.517
response, single replicate of concentration-response curve ([2]; Log[Drug] -11.52, drug alone): -1.632 and -2.513 and -9.3706 and 4.84 and 6.766 and 9.126 and -22.9448 and -13.1075 and -5.3496
response, single replicate of concentration-response curve ([2]; Log[Drug] -12, drug alone): -2.553 and 8.39 and 5.434 and 10.274 and 10.0549 and 1.613 and 2.42 and 0.1252 and -2.5423
β-arrestin2 recruitment response in presence of serotonin (replicate values) (5HT4; Log[Drug] -6.52): 61.872
β-arrestin2 recruitment response (dose-response source data, replicate values) (5HT4; Log[Drug] -6.52): 1.914
β-arrestin2 recruitment response in presence of serotonin (replicate values) (5HT4; Log[Drug] -7): 64.7524 and 57.0569 and 68.7411 and 71.876 and 66.1156 and 64.7823 and 62.9846 and 72.5854 and 58.9141
β-arrestin2 recruitment response (dose-response source data, replicate values) (5HT4; Log[Drug] -7): 0.4762 and 0.5315 and 0.3036 and 1.47 and 0.6917 and 0.6083 and -0.2126 and 0.07923 and 0.2126
β-arrestin2 recruitment response in presence of serotonin (replicate values) (5HT4; Log[Drug] -7.52): 67.3937 and 54.3976 and 65.3292 and 58.7354 and 62.4375 and 61.2125 and 60.3264 and 67.443 and 67.076
β-arrestin2 recruitment response (dose-response source data, replicate values) (5HT4; Log[Drug] -7.52): 0.4824 and 0.6557 and 1.0009 and 1.276 and 0.8198 and 0.6438 and -0.1108 and 0.08408 and -0.1463
β-arrestin2 recruitment response in presence of serotonin (replicate values) (5HT4; Log[Drug] -8): 65.8409 and 63.3895 and 63.0679 and 59.9271 and 55.4104 and 64.9198 and 50.9713 and 49.466 and 77.9372
β-arrestin2 recruitment response (dose-response source data, replicate values) (5HT4; Log[Drug] -8): 0.2279 and 0.2043 and 0.8233 and 0.8469 and 0.6458 and 2.318 and -0.27 and -0.308 and 0.6993
β-arrestin2 recruitment response in presence of serotonin (replicate values) (5HT4; Log[Drug] -8.52): 63.4237 and 62.7587 and 63.6242 and 63.1469 and 61.3792 and 61.5198 and 57.3708 and 61.2149 and 65.253
β-arrestin2 recruitment response (dose-response source data, replicate values) (5HT4; Log[Drug] -8.52): 1.195 and 1.746 and 0.9636 and 0.6083 and 1.193 and 1.147 and -0.3056 and 0.2118 and 0.0477
β-arrestin2 recruitment response in presence of serotonin (replicate values) (5HT4; Log[Drug] -9): 73.1291 and 64.8356 and 60.6203 and 52.4417 and 65.9365 and 64.5823 and 63.8148 and 65.7381 and 55.6869
β-arrestin2 recruitment response (dose-response source data, replicate values) (5HT4; Log[Drug] -9): 0.9748 and 0.4464 and 1.275 and 1.439 and 1.359 and 0.525 and -0.3751 and 0.5028 and -0.1156
β-arrestin2 recruitment response in presence of serotonin (replicate values) (5HT4; Log[Drug] -9.52): 69.2832 and 67.6123 and 68.9932 and 55.1 and 63.4344 and 64.601 and 58.9998 and 66.4964 and 65.7267
β-arrestin2 recruitment response (dose-response source data, replicate values) (5HT4; Log[Drug] -9.52): 0.9748 and 1.052 and 0.4042 and 0.901 and 0.7365 and 0.6104 and 1.02 and 0.3484 and -0.01698
β-arrestin2 recruitment response in presence of serotonin (replicate values) (5HT4; Log[Drug] -10): 76.2485 and 62.2675 and 64.5873 and 59.8927 and 56.6667 and 68.1219 and 68.0316 and 61.4033 and 67.9677
β-arrestin2 recruitment response (dose-response source data, replicate values) (5HT4; Log[Drug] -10): 0.629 and 0.5812 and 0.457 and 0.6927 and 0.4885 and 0.9823 and -0.2005 and 5.06 and 0.3864
β-arrestin2 recruitment response in presence of serotonin (replicate values) (5HT4; Log[Drug] -10.52): 75.7189 and 64.7332 and 70.6094 and 73.5573 and 66.3448 and 67.3771 and 66.768 and 70.3542 and 67.3953
β-arrestin2 recruitment response (dose-response source data, replicate values) (5HT4; Log[Drug] -10.52): 0.4328 and 0.1577 and 0.7768 and 0.8562 and 0.5281 and 1.361 and 0.08327 and -0.03395 and 0.2724
β-arrestin2 recruitment response in presence of serotonin (replicate values) (5HT4; Log[Drug] -11): 74.7968 and 75.6357 and 68.127 and 60.4448 and 57.1219 and 66.626 and 65.7178 and 87.5009 and 57.2593
β-arrestin2 recruitment response (dose-response source data, replicate values) (5HT4; Log[Drug] -11): 0.5557 and 0.7004 and 0.8308 and 2.567 and 0.5635 and 1.27 and -0.1415 and -0.4034 and 0.4066
β-arrestin2 recruitment response in presence of serotonin (replicate values) (5HT4; Log[Drug] -11.52): 97.2705 and 89.1683 and 77.1935 and 74.2448 and 65.2792 and 55.4573 and 62.6402 and 78.6163 and 88.7629
β-arrestin2 recruitment response (dose-response source data, replicate values) (5HT4; Log[Drug] -11.52): 0.4266 and 1.996 and 0.1267 and 1.773 and 0.5229 and 1.651 and 0.05093 and 0.01859 and 0.1746
β-arrestin2 recruitment response in presence of serotonin (replicate values) (5HT4; Log[Drug] -12): 118.392 and 99.4834 and 97.7219 and 77.2104 and 74.4021 and 77.9375 and 116.996 and 81.757 and 92.5544
β-arrestin2 recruitment response (dose-response source data, replicate values) (5HT4; Log[Drug] -12): 0.9382 and 1.326 and 1.032 (2×) and 0.8271 and 0.8656 and -0.4301 and -0.07599 and 0.5061
EC50 (DRD2 F1103.28L; DRD2 F1103.28L (b138 head prints DRD2 F1063.28L)): 0.00124 ± 0.00075 µM
Emax (DRD2 F1103.28L; read-out: Emax relative to quinpirole response, DRD2 F1103.28L): 56.4%
Ki (DRD3 F1063.28A): 1.05 µM
